How the values were obtained:
ACSS2 = target: T1, ACSS2 (Homo sapiens, UniProt Q9NR19); test: Cellular assay of 14C acetate incorporation into histones (IC50 ACSS2 cellular histone); type: cell-based; details: HCT-15 cells
T1 construct: endogenous fatty acid synthesis activity in the human HCT-15 cancer cell line; endogenous in cells; host or cells: HCT-15
Description: This protocol describes a cellular assay capable to quantify endogenous histone acetylation activity in the human HCT-15 cancer cell line following the incorporation of extracellularly administered radiolabeled ^14C acetate with a scintillation based read out on acid extracted histones.
HCT-15 cells are trypsinized, washed and suspended in DMEM culture medium supplemented with penicillin/streptomycin (100 U/mL), sodium pyruvate (1 mM), and 10% FBS
Compounds serial dilutions are prepared in 96-well V-bottom microplate from 10 mM stock solutions in DMSO. From these dilutions 0.5 µl are transferred to a fresh plate including pure DMSO as negative control. The dilutions are prepared such, that the final concentration in the assay is 1/400 of the concentration in the serial dilution. The final DMSO concentration in the assay is 0.25 %.
The cell suspension is seeded at densities of 2x10^5 cells per 170 µl into individual wells of a 96 well plate each containing 0.5 µl aliquots of compound serial dilutions and are kept for 1h in a cell incubator. To each well 30 µL of a mixture containing 0.5 mCi/mL of ^14C-acetate with full medium are added. Then, the wells are incubated for 3 hrs in the cell incubator.
Further steps of the procedure should be conducted on ice or instrumentations precooled to 4° C. Cells are sedimented in the 96-well V-bottom microplate by centrifugation (Eppendorf 5804 R) at 1200 rpm for 5 min. The supernatant is removed and the cells are washed twice with 200µL of PBS-NaB (5 mM sodium butyrate) buffer by iterative resuspension and centrifugation. Finally, the cells are resuspended in 50 µL of TEB (PBS-NaB + 0.5 % Triton X-100) and left on ice for 10 minutes. After centrifugation at 2300 rpm for 10 minutes at 4° C. the supernatant is removed, the remaining pellet is suspended in 50 µL of 0.2 M HCl and incubated over night at 4° C. After incubation the well plate is shaken for 2 minutes in a MTP plate shaker set to 1200 rpm and then centrifuged at 3700 rpm for 10 mins. The lysate is carefully aspirated (~43 µL) and transferred into a white MTP plate (Greiner bio-one 65509). 90 µL of Ultima Gold XR scintillation cocktail are added and the plates are sealed with a transparent cover tape before mixing vigorously using plate shaker set to 1200 rpm. Radioactivity from ^14C incorporation in the wells is measured as CPM count in a MicroBeta Trilux luminescence counter.

human rec ACSS2 = target: T2, human rec ACSS2 (Homo sapiens, UniProt Q9NR19); test: Biochemical activity ACSS2 assay (AMP-Glo); details: human recombinant ACSS2, AMP-Glo, 180 min at 37° C.
T2 construct: myc (C); purchased Origene
T2 sequence (Q9NR19 whole entry): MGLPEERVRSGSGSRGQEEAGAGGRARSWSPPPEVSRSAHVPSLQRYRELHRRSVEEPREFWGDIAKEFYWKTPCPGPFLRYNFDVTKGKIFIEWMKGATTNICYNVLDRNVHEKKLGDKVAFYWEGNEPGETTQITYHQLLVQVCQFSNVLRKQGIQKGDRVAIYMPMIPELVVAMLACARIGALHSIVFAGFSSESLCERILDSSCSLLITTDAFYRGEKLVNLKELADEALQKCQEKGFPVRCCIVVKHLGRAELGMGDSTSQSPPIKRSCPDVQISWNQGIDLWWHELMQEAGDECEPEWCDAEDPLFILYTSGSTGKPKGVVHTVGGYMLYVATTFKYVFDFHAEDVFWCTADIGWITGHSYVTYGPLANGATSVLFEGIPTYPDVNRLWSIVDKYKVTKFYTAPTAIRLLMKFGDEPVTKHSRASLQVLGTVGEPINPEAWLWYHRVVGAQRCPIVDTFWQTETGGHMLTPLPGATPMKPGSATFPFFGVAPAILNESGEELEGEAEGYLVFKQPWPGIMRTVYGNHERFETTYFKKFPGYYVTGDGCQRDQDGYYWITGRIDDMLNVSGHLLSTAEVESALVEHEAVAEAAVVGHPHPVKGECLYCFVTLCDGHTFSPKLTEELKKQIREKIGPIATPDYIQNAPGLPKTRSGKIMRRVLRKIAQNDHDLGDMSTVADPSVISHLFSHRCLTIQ
Description: The biochemical activity assay for ACSS2 is based on the detection of released AMP by AMP-Glo ™ Assay kit (Promega, Madison). The assay is run in three steps: the enzymatic reaction in which human rec ACSS2 activates acetate with ATP and Coenzyme A as cosubstrates to acetyI-coA thereby releasing AMP and the detection reaction of AMP by AMP Glo assay in which after the destruction of the residual ATP with AMP Glo reagent 1 produced AMP is converted to ATP that is measured in a luciferase assay system (detection reagent). The ACSS2 activity correlates with the detected luminescence signal.
The assay was performed in Perkin Elmer 384well white Proxiplates in a total volume of 8 µl.
1 nM (fc) C-term myc tagged ACSS2 (human, recombinant, Origene, Rockville, US) and a mixture of 100 µM (fc) ATP, 100 µM (fc) Coenzyme A and 500 µM (fc) sodium acetate were incubated in a total volume of 5 µl (50 mM Hepes, 1 mM Mg-chloride, 150 mM NaCl, 1 mM DTT, 0.01 % (w/v) BSA, 0.3 % DMSO, pH 7.5) in the absence or presence of the test compound (10 dilution concentrations, start conc 30 µM) for 180 min at 37° C. The reaction was stopped and residual ATP destroyed by the addition of 1 µl AMP Glo reagent solution (Promega, Madison, US). After 1 h incubation at room temperature 2 µl of AMP Glo detection reagent was added and the assay was incubated for 0.75 hr at room temperature. The luminescence signal was measured with an Envision multimode reader (Perkin Elmer LAS Germany GmbH) at 700 nm in luminescence mode. The full value used was the inhibitor-free reaction. The pharmacological zero value was generated by addition of ACSS2 inhibitor (Ac-CoA Synthase Inhibitor - CAS 508186-14-9 -Calbiochem) in a final concentration of 5 µM. The inhibitory values (IC50) were determined using the program Assay Analyzer® from GeneData.

T1 sequence (Q9NR19 whole entry): as above

SMILES | IC50 (ACSS2) [nM] | IC50 (human rec ACSS2) [nM]
CCn1cnc(NC(=O)c2cc3c(nc2OC)nc(C(O)(c2ccccc2)c2ccccc2OC)n3CC)n1 (racemic) [Compound 57, 1-ethyl-N-(1-ethyl-1H-1,2,4-triazol-3-yl)-2-[hydroxy(2-methoxyphenyl)phenylmethyl]-5-methoxy-1H-imidazo[4,5-b]pyridine-6-carboxamide] | 10 to 100 | 100 to 10000
CCn1cnc(NC(=O)c2cc3c(nc2OC)nc(C(O)(c2ccccn2)c2cccs2)n3CC)n1 (racemic) [Compound 43, 1-ethyl-N-(1-ethyl-1H-1,2,4-triazol-3-yl)-2-[hydroxy(pyridin-2-yl)(thiophen-2-yl)methyl]-5-methoxy-1H-imidazo[4,5-b]pyridine-6-carboxamide] | 10 to 100 | 10 to 100
CCn1cc(NC(=O)c2cc3c(nc2Cl)nc(C(O)(c2ccc(OC(F)F)cc2)c2ccccc2F)n3CC)cn1 (racemic) [Compound 85, 5-chloro-2-{[4-(difluoromethoxy)phenyl](2-fluorophenyl)hydroxymethyl}-1-ethyl-N-(1-ethyl-1H-pyrazol-4-yl)-1H-imidazo[4,5-b]pyridine-6-carboxamide] | 10 to 100 | 10 to 100
CCn1cnc(NC(=O)c2cc3c(nc2Cl)nc(C(O)(c2ccccc2)c2ccccc2)n3CC)c1 [Compound 82, 5-chloro-1-ethyl-N-(1-ethyl-1H-imidazol-4-yl)-2-(hydroxydiphenylmethyl)-1H-imidazo[4,5-b]pyridine-6-carboxamide] | 0.01 to 1 | 1 to 10
CCn1cnc(NC(=O)c2cc3c(nc2Cl)nc(C(O)(c2ccccc2)c2ccccc2)n3CC)n1 [Compound 99, 5-chloro-1-ethyl-N-(1-ethyl-1H-1,2,4-triazol-3-yl)-2-(hydroxydiphenylmethyl)-1H-imidazo[4,5-b]pyridine-6-carboxamide] | 0.01 to 1 | 1 to 10
CCn1cc(NC(=O)c2cc3c(nc2Cl)nc(C(O)(c2ccccc2)c2ccc(OC(F)F)cc2F)n3CC)cn1 (single isomer, unassigned) [Compound 74] | 1 to 10 | 1 to 10
CCn1cc(NC(=O)c2cc3c(nc2C)nc(C(O)(c2ccccc2)c2ccccc2)n3CC)cn1 [Compound 109, 1-ethyl-N-(1-ethyl-1H-pyrazol-4-yl)-2-(hydroxydiphenylmethyl)-5-methyl-1H-imidazo[4,5-b]pyridine-6-carboxamide] | 1 to 10 | 1 to 10
CCn1cc(NC(=O)c2cc3c(nc2OC)nc(C(O)(c2ccc(OC(F)F)cc2)c2ccccc2F)n3CC)cn1 (racemic) [Compound 88, 2-{[4-(difluoromethoxy)phenyl](2-fluorophenyl)hydroxymethyl}-1-ethyl-N-(1-ethyl-1H-pyrazol-4-yl)-5-methoxy-1H-imidazo[4,5-b]pyridine-6-carboxamide] | 10 to 100 | 10 to 100
CCn1cnc(NC(=O)c2cc3c(nc2C)nc(C(O)(c2ccccc2F)c2ccc(OC(F)F)cc2F)n3CC)n1 (single isomer, unassigned) [Compound 96] | 10 to 100 | 1 to 10
CCn1cnc(NC(=O)c2cc3c(nc2OC)nc(C(O)(c2ccc(OC(F)F)cc2)c2ccccc2F)n3CC)n1 (racemic) [Compound 87, 2-{[4-(difluoromethoxy)phenyl](2-fluorophenyl)hydroxymethyl}-1-ethyl-N-(1-ethyl-1H-1,2,4-triazol-3-yl)-5-methoxy-1H-imidazo[4,5-b]pyridine-6-carboxamide] | 1 to 10 | 1 to 10
CCn1cnc(NC(=O)c2cc3c(nc2OC)nc(C(O)(c2ccccc2)c2ccccc2)n3CCOC)n1 [Compound 41, N-(1-ethyl-1H-1,2,4-triazol-3-yl)-2-(hydroxydiphenylmethyl)-5-methoxy-1-(2-methoxyethyl)-1H-imidazo[4,5-b]pyridine-6-carboxamide] | 1 to 10 | 1 to 10
CCn1cnc(NC(=O)c2cc3c(nc2C)nc(C(O)(c2ccccc2F)c2ccc(OC(F)F)cc2F)n3CC)n1 (single isomer, unassigned) [Compound 95] | 10 to 100 | 10 to 100

From patent publication US20230271956A1, “AMIDE DERIVATIVES” (Merck Patent GmbH, priority 2020, published 2023)
